The results in this text go back to patent US6387925B1, “Polymorphs of a crystalline azo-bicyclo (2.2.2) oct-3-yl amine citrate and their pharmaceutical compositions” (Pfizer Inc., priority 1999, dated 2002).

Entries after “also recorded” stand apart in the source; their conditions may differ. Structures can show the parent of a compound that is named as a salt. Where two headings read alike, the source gives them in different places.

This data set in a line: Hygroscopicity measurements. The class given is physicochemical. The settings on record: for water absorbed (hygroscopicity): at 90% RH. On the procedure:
Anhydrous citrate synthesis was carried out by adding 1.1 equivalents citric acid to a stirred slurry of the free base in isopropanol (15 volumes) at room temperature. The resulting solution was stirred and monitored by differential scanning calorimetry and after all the free base had reacted (18 hours), the anhydrous citrate salt was obtained as a white crystalline solid by filtration and drying under house vacuum at 45° C. with nitrogen purge (83% yield). […] The crystalline habits frequently encountered are microcrystalline flakes. The most intense reflections, d spacings, observed by X-ray powder diffraction were 17.608, 10.953, 8.782, 7.956, 7.371, 6.802, 6.571, 5.866, 5.462, 4.907, 4.415, 4.188, 3.635 and 3.512Å.
The resulting citrate monohydrate salt, Form A, was compared to an authentic sample and characterized via PLM, X-ray powder diffraction, proton NMR, Karl Fisher, DSC and elemental analysis. […] The two crystalline habits having similar refractograms encountered were plates and needles. The needle habit was as a result of different rate of growth of the crystal faces in water whereas in isopropanol/water more even growth of crystal faces produced plates. The most intense reflections, d spacings, observed by X-ray powder diffraction were 17.730, 10.928, 9.651, 8.253, 6.707, 5.981, 5.666, 5.450, 4.833, 4.488, and 3.646Å. […] Elemental analysis validated the purity of the salt synthesized.

`COc1ccc(C(C)C)cc1CNC1C2CCN(CC2)C1C(c1ccccc1)c1ccccc1.O.O=C(O)CC(O)(CC(=O)O)C(=O)O` (stereo not shown) [Form A]: the “water absorbed (hygroscopicity)” value worked out at 2.44 % wt./wt. Also, under “citrate monohydrate”, the “hygroscopicity (in words)” value is “hygroscopically stable; also recorded: lack of hygroscopicity”.
In the case of `COc1ccc(C(C)C)cc1CN[C@H]1C2CCN(CC2)[C@H]1C(c1ccccc1)c1ccccc1` [anhydrous citrate salt, (2-Benzhydryl-1-azo-bicyclo[2.2.2]oct-3-yl)-(5-isopropyl-2-methoxybenzyl)-amine citrate], the “hygroscopicity (in words)” value is listed as “nonhygroscopic” and the “water absorbed (hygroscopicity)” value is reported as 1.11 % wt./wt.
